# “And” between values parts separate entries of the source, which are not always exact repeats. Identical values can stand only once.
# Tests used:
# [1] = system: perfused db/db mouse livers; assay: isolated perfused liver study, 13C NMR, [2-13C] pyruvate; settings: data not shown
# Experimental: To evaluate whether GPR40 partial agonist treatment produced a direct effect on hepatic glucose production, we performed isolated perfused liver studies with ^13C NMR spectroscopy in which GPR40 agonists were dosed directly to the liver ex vivo. Mouse livers were chosen instead of rat livers due to size restrictions of the perfused liver apparatus. […] A detailed description of the perfused liver technique can be found elsewhere. Briefly, db/db mice were anesthetized (Nembutal IP, 100 mg/kg), the portal vein was cannulated and tied off, and the liver was excised and perfused with a pre-oxygenated Krebs-bicarbonate buffered solution. The liver was then placed into a 20 mm NMR tube and the gluconeogenic substrate [2-^13C] pyruvate (10 mM) was added to the perfusate plus either MK-2305 (10 μM) or vehicle (0.1% DMSO). […] These NMR signals were then converted to absolute units (μmoles) by comparison to ^13C NMR spectra of standard solutions acquired under identical conditions. Additional correction factors were included for ^13C-glycogen and ^13C-glucose to account for the fact that position 2 in pyruvate can end up at position 1, 2, 5, or 6 in glucose/glycogen due to the fumarase and triose phosphate isomerase reactions. The slope of each signal versus time was then used to calculate the following fluxes: glucose production, glycogen synthesis, and lactate production.
# [2] = biological target: T1, rat GPR40 (FFAR1) (Rattus norvegicus, UniProt Q8K3T4); assay: IP1 functional assay, CHO cells stably expressing rat GPR40; format: cell-based; settings: representative curve Fig 1B
# T1 construct: expressed in transfected cells
# Experimental: CHO Jump-IN cells stably expressing rat GPR40 or HEK293 Jump-IN cells stably expressing rat GPR120 were cultured in DMEM media supplemented with 10% dialyzed FBS, non-essential amino acids, penicillin/streptomycin, 10 μg/ml Blasticidin S HCL and 200 or 100 μg/ml Hygromycin B, respectively (Life Technologies). Cell stocks were maintained and grown in a sub-confluent state using standard cell culture procedures. The day before the experiment, the cells were harvested with non-enzymatic cell dissociation buffer and re-suspended in DMEM supplemented as described above at 0.15 million cells per ml. […] The seeded plates were incubated overnight at 37°C in a humidified environment.
# On the day of the experiment, the growth media was removed from the assay plate by centrifugation using a BlueCatBio BlueWasher, protocol #21 “Light Dry” and 10 μl of IP1 stimulation buffer (prepared according to the Cisbio IP-one Tb HTRF kit) is added to each well. Test compounds were dissolved and serially diluted in DMSO as 200X the final assay concentration and 50 nl of the compound dilution was acoustically added to each well of the assay plates. The plates were then incubated for 60 minutes at room temperature and 10 μl of detection buffer (prepared according to the IP-one Tb HTRF kit) is added to each well of the assay plate. The plates were then incubated for one additional hour at room temperature. […] For each assay, a standard curve plate in which IP1 is titrated is also included. […] The % activation is then plotted versus the concentration of test compound and the dose response curve fitted to a standard 4-paramater non-linear regression model using a custom in-house developed software package. Maximal % activation and EC50 are then determined for each test compound.
# [3] = system: GK rats; assay: GK rat chronic efficacy, compound in feed for 20 days; format: in vivo; settings: for Morning (fed) Blood Glucose: Rosi 10 mpk in feed
# Experimental: At the start of the study, fed glucose was measured at 8 A.M., and animals were selected and sorted into treatment groups based on ambient glucose (n = 10/male GK group, n = 6/male WKY control group). […] Fed blood glucose, food intake, and body weights were determined on days 0, 1, 3, 7, and 14 of study at 8 A.M. On days 7 and 14, food was removed for 5 h and plasma glucose was measured. Percent inhibitions were calculated as the percent reduction of blood glucose from the average value for vehicle controls. On day 14, blood was collected from the tail vein (20 μl) after the morning glucose measurement and after 5 h fast from a subset of n = 3 rats per treatment group to determine the ambient and fasted exposure of the compounds in circulation. The blood was stored at 4°C in 0.1 M sodium monocitrate for subsequent analysis. Animals were then re-fed their respective diet treatments. On day 20 of treatment at 8 A.M., blood glucose was measured and then animals were euthanized via CO2 asphyxiation. Blood and liver tissue were sampled, processed, and stored at -80°C until analysis.
# Plasma was analyzed for triglycerides, NEFA, and HbA1C using a P Modular Roche Clinical Chemistry analyzer. Liver triglycerides were extracted as described by Bligh and Dyer, and were measured using the Infinity triglyceride assay kit (Thermo Scientific, Rockford, IL). Plasma insulin levels were measured via EIA (Mesoscale Discovery ELISA Kit, Gaithersburg MD).
# [4] = system: GK rats; assay: as above; format: in vivo; settings: Day 7, ~6 hrs after food removal; 10mpk; chronic study; individual animals; 10 mg/kg
# [5] = plasma exposure of the compounds on day 14 of the chronic study; format: in vivo, rat; settings: 10 mg/kg in feed, GK rats
# Experimental: At the start of the study, fed glucose was measured at 8 A.M., and animals were selected and sorted into treatment groups based on ambient glucose (n = 10/male GK group, n = 6/male WKY control group). Animals were then placed on diet (LabDiet # 5001) that contained, or was devoid of, compound at the daily doses indicated. Fed blood glucose, food intake, and body weights were determined on days 0, 1, 3, 7, and 14 of study at 8 A.M. On days 7 and 14, food was removed for 5 h and plasma glucose was measured. Percent inhibitions were calculated as the percent reduction of blood glucose from the average value for vehicle controls. On day 14, blood was collected from the tail vein (20 μl) after the morning glucose measurement and after 5 h fast from a subset of n = 3 rats per treatment group to determine the ambient and fasted exposure of the compounds in circulation. The blood was stored at 4°C in 0.1 M sodium monocitrate for subsequent analysis. Animals were then re-fed their respective diet treatments. On day 20 of treatment at 8 A.M., blood glucose was measured and then animals were euthanized via CO2 asphyxiation. Blood and liver tissue were sampled, processed, and stored at -80°C until analysis.
# [6] = system: diabetic humans; settings: clinical trials; cited from earlier work
# [7] = 10 mpk, following 20 days of treatment in the GK rat, individual animals
# T1 sequence (Q8K3T4 whole entry): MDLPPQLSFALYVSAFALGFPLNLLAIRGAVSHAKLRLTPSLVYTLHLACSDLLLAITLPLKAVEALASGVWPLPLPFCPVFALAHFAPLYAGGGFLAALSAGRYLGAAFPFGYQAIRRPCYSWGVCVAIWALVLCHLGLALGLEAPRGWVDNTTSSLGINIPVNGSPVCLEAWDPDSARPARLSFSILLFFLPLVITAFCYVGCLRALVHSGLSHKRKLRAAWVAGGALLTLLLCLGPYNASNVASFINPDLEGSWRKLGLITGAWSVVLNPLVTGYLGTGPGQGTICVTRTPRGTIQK
smiles,measurement,setting,value
"O=C(O)c1ncccc1S [3-MPA, reference compound]",effect on gluconeogenesis in the perfused liver,[1],marked acute reductions
"COc1ccc(F)c(-c2ccc(COc3cccc([C@@H](CC(=O)O)C4CC4)c3)cc2C2=CCCC2(C)C)c1 [AM1638, reference compound]",Receptor Activation (%),[2]; Concentration 1e-6 M,370%
same,Receptor Activation (%),[2]; Concentration 1.50E-11 M,-18%
same,Receptor Activation (%),[2]; Concentration 1.56E-08 M,132%
same,Receptor Activation (%),[2]; Concentration 2.44E-10 M,11%
same,Receptor Activation (%),[2]; Concentration 2.50E-07 M,361%
same,Receptor Activation (%),[2]; Concentration 3.91E-09 M,23%
same,Receptor Activation (%),[2]; Concentration 4.00E-12 M,-6%
same,Receptor Activation (%),[2]; Concentration 6.10E-11 M,2%
same,Receptor Activation (%),[2]; Concentration 6.25E-08 M,275%
same,Receptor Activation (%),[2]; Concentration 9.77E-10 M,18%
"CCOC(=O)[C@H](C)NP(=O)(N[C@@H](C)C(=O)OCC)c1ccc(-c2nc(N)sc2CC(C)C)o1 [CS917, reference compound]",effect on gluconeogenesis in the perfused liver,[1],marked acute reductions
"CN(CCOc1ccc(CC2SC(=O)NC2=O)cc1)c1ccccn1 (stereo not shown) [Rosiglitazone, reference compound]",effect on body weight,"[3]; 10 mg/kg in feed, GK rats",steady increase in body weight
same,effect on food intake,"[3]; 10 mg/kg in feed, GK rats",significant and consistent increase in food consumption beginning on day 3
same,% HBA1c,[3]; [7],4.4% and 4.2% and 4.3% and 4.7%
same,Liver Triglycerides,[3]; [7],5.5 mg/g tissue and 8.7 mg/g tissue and 7.2 mg/g tissue and 5 mg/g tissue and 3.9 mg/g tissue and 6.1 mg/g tissue and 3.1 mg/g tissue
same,Fasted plasma insulin,"[3]; Day 7, 10mpk, individual animals, 10 mg/kg",64.4 pg/mL and 7.9 pg/mL and 28.0 pg/mL and 0.0 pg/mL and 126.7 pg/mL and 13.3 pg/mL and 40.2 pg/mL and 147.0 pg/mL and 54.7 pg/mL
same,Fasted plasma insulin,"[3]; Day 14, 10mpk, individual animals, 10 mg/kg",82.7 pg/mL and 67.8 pg/mL and 78.9 pg/mL and 214.4 pg/mL and 804.3 pg/mL and 809.3 pg/mL and 0.0 pg/mL and 890.8 pg/mL and 292.0 pg/mL
same,Morning (fed) Blood Glucose,"[3]; Day 0 (start of study), individual GK rats",195 mg/dL and 181 mg/dL and 219 mg/dL and 203 mg/dL and 204 mg/dL and 243 mg/dL and 186 mg/dL and 233 mg/dL and 191 mg/dL and 282 mg/dL
same,Morning (fed) Blood Glucose,"[3]; Day 1, individual GK rats",211 mg/dL and 175 mg/dL and 218 mg/dL and 246 mg/dL and 213 mg/dL and 240 mg/dL and 207 mg/dL and 205 mg/dL and 198 mg/dL and 275 mg/dL
same,Morning (fed) Blood Glucose,"[3]; Day 3, individual GK rats",129 mg/dL and 177 mg/dL and 163 mg/dL and 175 mg/dL and 172 mg/dL and 174 mg/dL and 242 mg/dL
same,Morning (fed) Blood Glucose,"[3]; Day 7, individual GK rats",135 mg/dL and 125 mg/dL and 137 mg/dL and 118 mg/dL and 123 mg/dL
same,Morning (fed) Blood Glucose,"[3]; Day 14, individual GK rats",133 mg/dL and 134 mg/dL and 121 mg/dL and 132 mg/dL
same,Morning (fed) Blood Glucose,"[3]; Day 20, individual GK rats",126 mg/dL and 133 mg/dL and 128 mg/dL and 129 mg/dL and 127 mg/dL and 123 mg/dL
same,NEFA (mEq/L),"[3]; Rosi @ 10, 20 days of treatment, individual GK rats",0.32 mEq/L and 0.33 mEq/L and 0.35 mEq/L and 0.75 mEq/L and 0.49 mEq/L and 0.54 mEq/L and 0.48 mEq/L and 0.39 mEq/L and 0.65 mEq/L
same,decrease in fed glucose vs. vehicle,"[3]; day 3, 10 mg/kg in feed, GK rats, p < 0.05",22%
same,reduction in fasting blood glucose vs. vehicle,"[3]; day 7, 5 hr fast, 10 mg/kg in feed, GK rats",16%
same,reduction in fasting blood glucose vs. vehicle,"[3]; day 14, 5 hr fast, 10 mg/kg in feed, GK rats",19%
same,plasma NEFA,"[3]; day 20, 10 mg/kg in feed, GK rats, mean ± SEM, vehicle 0.37 ± 0.03, not significant",0.48 ± 0.05 mEq/L
same,effect on circulating HbA1C levels,"[3]; day 20, GK rats, all treatment groups",significantly reduced
same,effect on liver triglyceride levels,"[3]; day 20, GK rats, vs. vehicle controls",significant decrease
same,effect on fasted plasma insulin,"[3]; days 7 and 14, 5 hr fast, GK rats",no significant effects
same,Fasted blood glucose,"[3]; second block of the table (day 14 per title), 10mpk, individual animals, 10 mg/kg",124 mg/dl and 131 mg/dl (2×) and 114 mg/dl and 133 mg/dl and 134 mg/dl
same,Fasted blood glucose,[4],109 mg/dL and 132 mg/dL and 121 mg/dL and 119 mg/dL and 134 mg/dL and 110 mg/dL and 115 mg/dL and 116 mg/dL
same,plasma exposure,"[5]; day 14, fasted time point",~0.7 µM
same,plasma exposure,"[5]; day 14, fed time point",~ 3 μM
"Cc1cc(OCCCS(C)(=O)=O)cc(C)c1-c1cccc(COc2ccc3c(c2)OC[C@H]3CC(=O)O)c1 [TAK-875, Fasiglifam]","effect on oral glucose tolerance, fasted plasma glucose, and hemoglobin HbA1C",[6],significant reductions
